Results published in article PMC2885048 (Molecular cancer therapeutics, 2010).

Assays:
muIDO2 = molecular target: T1, muIDO2 (Mus musculus, UniProt Q8R0V5); test: kynurenine assay in 293-T-REx cells expressing muIDO2; assay type: cell-based
T1 sequence (Q8R0V5 1-405): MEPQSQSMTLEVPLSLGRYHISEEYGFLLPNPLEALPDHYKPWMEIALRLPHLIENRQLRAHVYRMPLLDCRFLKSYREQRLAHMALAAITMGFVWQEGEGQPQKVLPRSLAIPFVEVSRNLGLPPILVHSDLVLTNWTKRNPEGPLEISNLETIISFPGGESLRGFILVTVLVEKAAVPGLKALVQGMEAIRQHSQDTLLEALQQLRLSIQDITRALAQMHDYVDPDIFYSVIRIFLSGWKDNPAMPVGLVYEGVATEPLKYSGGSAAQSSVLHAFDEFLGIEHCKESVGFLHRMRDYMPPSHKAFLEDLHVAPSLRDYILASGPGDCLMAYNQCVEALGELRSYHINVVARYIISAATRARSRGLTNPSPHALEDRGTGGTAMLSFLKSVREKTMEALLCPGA

muIDO1 = muIDO1 (Mus musculus, UniProt P28776); test: kynurenine assay in 293-T-REx cells expressing muIDO1; assay type: cell-based
Sequence of muIDO1 (P28776 whole entry): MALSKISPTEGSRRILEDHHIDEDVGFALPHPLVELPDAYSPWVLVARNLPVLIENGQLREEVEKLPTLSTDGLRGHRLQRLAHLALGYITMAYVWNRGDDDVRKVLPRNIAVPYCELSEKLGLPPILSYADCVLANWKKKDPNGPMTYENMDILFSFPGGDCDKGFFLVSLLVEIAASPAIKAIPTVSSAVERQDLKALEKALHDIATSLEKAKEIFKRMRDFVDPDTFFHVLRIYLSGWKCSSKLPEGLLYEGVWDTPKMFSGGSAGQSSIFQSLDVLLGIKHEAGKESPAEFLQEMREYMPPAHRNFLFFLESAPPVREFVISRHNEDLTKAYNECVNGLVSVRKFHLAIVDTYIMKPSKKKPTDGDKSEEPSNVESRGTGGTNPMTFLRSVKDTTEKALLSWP

## C=CC1=C(C)C2=Cc3c(C=C)c(C)c4[n]3[Zn][n]3c(c(C)c(CCC(=O)O)c3=CC3=NC(=C4)C(C)=C3CCC(=O)O)=CC1=N2 [ZnPP]
muIDO2
  IC50: 7.1 µM
muIDO1
  IC50: 3.3 µM
